Results as given in US12129221B2, “Difluoro phenyl amide RIP1 inhibitor” (SIRONAX LTD, priority 2018, dated 2024).
Where two headings read alike, the source gives them in different places. One block for each compound: values may come before it.

Legend:
ferroptosis = experiment: Ferroptosis inhibitor activity; assay type: cell-based; settings: 1 uM threshold activity extrapolated
Text: Ferroptosis Inhibitor Activity 1 Um Threshold Activity Extrapolated

necrosis = experiment: Necrosis inhibitory activity (cell necrosis / cell viability assay); assay type: cell-based
Text: Necrosis Inhibitory Activity
(§1) Representative IC50 of hRIP1 Kinase Assay Correlated with Our IC50 of Cell Necrosis Assay: […]

Human RIP1 kinase = Human RIP1 kinase (Homo sapiens (Human), UniProt Q13546); experiment: Human RIP1 kinase assay; assay type: biochemical; settings: given as bound or range
Text: as §1

[1] = Prodrug enhanced metabolic stability: PK; assay type: in vivo; set-up: key: +, Extrapolated
Text: (§2) Prodrug Enhanced Metabolic Stability: Liver Microsome (L), Hepatocyte (H) and PK

[2] = Prodrug enhanced metabolic stability: hepatocyte (H); assay type: in vitro ADME; set-up: key: +, Extrapolated
Text: as §2

[3] = Prodrug enhanced metabolic stability: liver microsome (L); assay type: in vitro ADME; set-up: key: +, Extrapolated
Text: as §2

[4] = Liver microsome stability, human; assay type: in vitro ADME; settings: liver microsomes, comparison table with WO2016/101885 compounds, read-out: Human Liver Microsome T1/2
Text: (§3) Representative Metabolic Stability Data I; +, Extrapolated.

[5] = Liver microsome stability, mouse; assay type: in vitro ADME; settings: liver microsomes, comparison table with WO2016/101885 compounds, read-out: Mouse Liver Microsome T1/2
Text: as §3

HT-29 = experiment: EC50 in HT-29; assay type: cell-based; settings: Homo sapiens
[6] = Liver microsome stability, rat; assay type: in vitro ADME; settings: liver microsomes, comparison table with WO2016/101885 compounds, read-out: Rat Liver Microsome T1/2
Text: as §3

PK in rat = experiment: PK in rat; set-up: species or system SD rat; settings: Sprague-Dawley, in vivo, PO 10 mg/kg
Text: Representative PK Date of Pro-Drug Compounds

PK in mouse = settings: in vivo
PK in dog = settings: in vivo
[7] = Necrosis Inhibitory Activity, given as range, read-out: EC50
[8] = cell necrosis assay, given as bound or range, read-out: Cell viability assay, EC50
[9] = Active Pro-drugs, read-out: EC50

Human RIP1 kinase, sequence (Q13546 whole entry): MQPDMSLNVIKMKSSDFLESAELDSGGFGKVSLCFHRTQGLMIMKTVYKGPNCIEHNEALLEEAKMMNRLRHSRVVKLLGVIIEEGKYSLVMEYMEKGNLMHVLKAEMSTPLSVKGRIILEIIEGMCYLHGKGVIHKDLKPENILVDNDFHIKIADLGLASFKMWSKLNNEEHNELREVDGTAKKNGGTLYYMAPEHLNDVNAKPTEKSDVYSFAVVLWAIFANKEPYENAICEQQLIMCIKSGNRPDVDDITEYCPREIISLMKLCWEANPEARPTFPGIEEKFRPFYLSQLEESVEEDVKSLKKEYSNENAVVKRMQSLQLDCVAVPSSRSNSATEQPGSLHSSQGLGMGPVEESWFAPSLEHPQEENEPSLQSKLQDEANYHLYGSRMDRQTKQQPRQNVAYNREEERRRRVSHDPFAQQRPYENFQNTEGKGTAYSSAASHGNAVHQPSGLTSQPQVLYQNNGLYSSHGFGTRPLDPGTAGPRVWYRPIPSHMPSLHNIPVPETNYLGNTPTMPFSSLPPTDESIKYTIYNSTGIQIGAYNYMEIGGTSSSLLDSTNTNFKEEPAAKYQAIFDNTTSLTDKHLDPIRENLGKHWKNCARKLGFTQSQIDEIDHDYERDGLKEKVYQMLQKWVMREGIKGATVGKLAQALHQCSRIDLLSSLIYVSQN

SMILES: CCC(C)(C)C(=O)N(O)Cc1ccsc1 [Compound 23, N-hydroxy-2,2-dimethyl-N-(thiophen-3-ylmethyl)butanamide]
EC50 (ferroptosis): 1000 to 10000 nM
EC50 (necrosis; [7]): 1 to 1000 nM
EC50 (necrosis; [8]): 1 to 1000 nM
IC50 (Human RIP1 kinase): < 100 nM

SMILES: CCC(C)(C)C(=O)N(O)Cc1ccc(F)c(F)c1 [SIR1-180]
half-life [4]: 107 min
half-life [5]: 11 min
EC50 (HT-29): 55 nM
half-life [6]: 29 min

SMILES: CC(C)(C(=O)N(O)Cc1cc(F)cc(F)c1)C(F)F [Compound 75, N-(3,5-difluorobenzyl)-3,3-difluoro-N-hydroxy-2,2-dimethylpropanamide]
EC50 (ferroptosis): 1000 to 10000 nM
EC50 (necrosis; [7]): 1 to 1000 nM
PK [1]: +
H [2]: +
L [3]: +

SMILES: CCC1(C(=O)N(O)Cc2ccccc2)CC1 [Compound 38, N-benzyl-1-ethyl-N-hydroxycyclopropane-1-carboxamide]
EC50 (ferroptosis): 1000 to 10000 nM
EC50 (necrosis; [7]): 1000 to 10000 nM
EC50 (necrosis; [8]): 1 to 10000 nM
IC50 (Human RIP1 kinase): 100 to 1000 nM

SMILES: CCC(C)(C)C(=O)N(Cc1ccccc1)OP(=O)(N(C)C)N(C)C [Compound 68, N-benzyl-N-((bis(dimethylamino)phosphoryl)oxy)-2,2-dimethylbutanamide]
EC50 (necrosis; [9]): 1620 nM
PK [1]: +
H [2]: +
L [3]: +

SMILES: CCC(C)(C)C(=O)N(Cc1ccccc1)OC(=O)c1cccnc1 [Compound 60, N-benzyl-2,2-dimethyl-N-(nicotinoyloxy)butanamide]
EC50 (necrosis; [9]): 83.5 nM
PK [1]: +
H [2]: +
L [3]: +

SMILES: CCC(C)(C)C(=O)N(O)Cc1ccc(F)c(F)c1F [SIR1-184]
half-life [4]: 36 min
half-life [5]: 12 min
EC50 (HT-29): 272 nM
half-life [6]: 19 min

SMILES: [2H]CC([2H])C(C)(C)C(=O)N(Cc1cc(F)cc(F)c1)OC(=O)OCCOCCOCCOC (stereo not shown) [Compound 67, N-((2,5,8,11-tetraoxadodecanoyl)oxy)-N-(3,5-difluorobenzyl)-2,2-dimethylbutanamide-3,4-d2]
EC50 (necrosis; [9]): 58.5 nM
PK [1]: +
H [2]: +
L [3]: +

SMILES: CCC(C)(C)C(=O)N(O)Cc1cnc(C)s1 [Compound 24, N-hydroxy-2,2-dimethyl-N-((2-methylthiazol-5-yl)methyl)butanamide]
EC50 (ferroptosis): 1000 to 10000 nM
EC50 (necrosis; [7]): 1 to 1000 nM
EC50 (necrosis; [8]): 1 to 1000 nM
IC50 (Human RIP1 kinase): 100 to 1000 nM

SMILES: CCC(C)(C)C(=O)N(Cc1ccccc1)OP(=O)(OC)OC [Compound 70, dimethyl ((N-benzyl-2,2-dimethylbutanamido)oxy)phosphonate]
EC50 (necrosis; [9]): 1700 nM
PK [1]: +
H [2]: +
L [3]: +

SMILES: CCOC(=O)ON(Cc1ccccc1)C(=O)C(C)(C)CC [Compound 50, N-benzyl-N-((ethoxycarbonyl)oxy)-2,2-dimethylbutanamide]
EC50 (necrosis; [9]): 69.6 nM
PK [1]: +
H [2]: +
L [3]: +

SMILES: [2H]CC([2H])C(C)(C)C(=O)N(Cc1cc(F)cc(F)c1)OCOC(=O)C(C)(C)C (stereo not shown) [Compound 64, ((N-(3,5-difluorobenzyl)-2,2-dimethylbutanamido-3,4-d2)oxy)methyl pivalate]
EC50 (necrosis; [9]): 91.4 nM
PK [1]: +
H [2]: +
L [3]: +

SMILES: CCC(C)(C)C(=O)N(O)Cc1cc(F)c(F)c(F)c1 [SIR1-186]
half-life [4]: 64 min
half-life [5]: 6 min
EC50 (HT-29): 46 nM
half-life [6]: 21 min

SMILES: CC(C)(C(=O)N(O)Cc1ccccc1)C(F)F [Compound 74, N-benzyl-3,3-difluoro-N-hydroxy-2,2-dimethylpropanamide]
EC50 (ferroptosis): 1000 to 10000 nM
EC50 (necrosis; [7]): 1 to 1000 nM
PK [1]: +
H [2]: +
L [3]: +

Second part, led by results:

EC50 (ferroptosis): 1000 to 10000 nM
IC50 (Human RIP1 kinase): 100 to 1000 nM
SMILES: Cc1ccsc1CN(O)C(=O)C(C)(C)C(F)(F)F [Compound 48, 3,3,3-trifluoro-N-hydroxy-2,2-dimethyl-N-((3-methylthiophen-2-yl)methyl)propanamide]
EC50 (necrosis; [7]): 1000 to 10000 nM
EC50 (necrosis; [8]): 1 to 10000 nM

EC50 (ferroptosis): 1000 to 10000 nM
IC50 (Human RIP1 kinase): 100 to 1000 nM
SMILES: O=C(N(O)Cc1ccccc1)C1(C(F)(F)F)CCC1 [Compound 35, N-benzyl-N-hydroxy-1-(trifluoromethyl)cyclobutane-1-carboxamide]
EC50 (necrosis; [7]): 1 to 1000 nM
EC50 (necrosis; [8]): 1 to 1000 nM

EC50 (ferroptosis): 1000 to 10000 nM
PK [1]: +
H [2]: +
L [3]: +
SMILES: CC(C)(CCF)C(=O)N(O)Cc1cc(F)cc(F)c1 [Compound 76, N-(3,5-difluorobenzyl)-4-fluoro-N-hydroxy-2,2-dimethylbutanamide]
EC50 (necrosis; [7]): 1000 to 10000 nM

EC50 (ferroptosis): 1000 to 10000 nM
IC50 (Human RIP1 kinase): < 100 nM
SMILES: O=C(C1CCN(c2ncc(F)cn2)CC1)N(O)Cc1cc(F)cc(F)c1 [Compound 86, N-(3,5-difluorobenzyl)-1-(5-fluoropyrimidin-2-yl)-N-hydroxypiperidine-4-carboxamide]
EC50 (necrosis; [7]): 1 to 1000 nM
EC50 (necrosis; [8]): 1 to 1000 nM

EC50 (ferroptosis): 1000 to 10000 nM
IC50 (Human RIP1 kinase): < 100 nM
SMILES: CCC(C)(C)C(=O)N(O)Cc1ccc2c(c1)CCC2 [Compound 20, N-((2,3-dihydro-1H-inden-5-yl)methyl)-N-hydroxy-2,2-dimethylbutanamide]
EC50 (necrosis; [7]): 1 to 1000 nM
EC50 (necrosis; [8]): < 100 nM

PK [1]: +
H [2]: +
L [3]: +
SMILES: [2H]CC([2H])C(C)(C)C(=O)N(Cc1cc(F)cc(F)c1)OC(=O)OCCOCCOC (stereo not shown) [Compound 66, N-(3,5-difluorobenzyl)-N-(((2-(2-methoxyethoxy)ethoxy)carbonyl)oxy)-2,2-dimethylbutanamide-3,4-d2]
EC50 (necrosis; [9]): 46 nM

PK [1]: +
H [2]: +
L [3]: +
SMILES: [2H]CC([2H])C(C)(C)C(=O)N(Cc1cc(F)cc(F)c1)OC(=O)OCC (stereo not shown) [Compound 61, N-(3,5-difluorobenzyl)-N-((ethoxycarbonyl)oxy)-2,2-dimethylbutanamide-3,4-d2]
EC50 (necrosis; [9]): 128 nM

half-life [4]: 67 min
half-life [5]: 9 min
EC50 (HT-29): 65 nM
half-life [6]: 22 min
SMILES: CCC(C)(C)C(=O)N(O)Cc1cc(F)cc(F)c1F [SIR1-176]

PK [1]: +
H [2]: +
L [3]: +
SMILES: CCC(C)(C)C(=O)N(Cc1ccccc1)OC(=O)CN(C)C [Compound 82, N-benzyl-N-((dimethylglycyl)oxy)-2,2-dimethylbutanamide]
EC50 (necrosis; [9]): 116 nM

EC50 (ferroptosis): 1000 to 10000 nM
IC50 (Human RIP1 kinase): < 100 nM
SMILES: O=C(C1CCN(c2ncc(F)cn2)CC1)N(O)Cc1ccccc1 [Compound 84, N-benzyl-1-(5-fluoropyrimidin-2-yl)-N-hydroxypiperidine-4-carboxamide]
EC50 (necrosis; [7]): 1 to 1000 nM
EC50 (necrosis; [8]): < 100 nM

PK [1]: +
H [2]: +
L [3]: +
SMILES: CCOC(=O)ON(Cc1cc(F)cc(F)c1)C(=O)C(C)(C)CC [Compound 87, N-(3,5-difluorobenzyl)-N-((ethoxycarbonyl)oxy)-2,2-dimethylbutanamide]
EC50 (necrosis; [9]): 67.8 nM

half-life [4]: 198 min
half-life [5]: 23 min
EC50 (HT-29): 197 nM
half-life [6]: 28 min
SMILES: CCC(C)(C)C(=O)N(O)Cc1ccc(F)cc1F [SIR1-179]

EC50 (ferroptosis): 1000 to 10000 nM
IC50 (Human RIP1 kinase): < 100 nM
SMILES: CCC(C)(C)C(=O)N(O)Cc1ccc(Cl)c(F)c1 [Compound 16, N-(4-chloro-3-fluorobenzyl)-N-hydroxy-2,2-dimethylbutanamide]
EC50 (necrosis; [7]): 1 to 1000 nM
EC50 (necrosis; [8]): 1 to 1000 nM

half-life [4]: 178 min
AUC(0-inf) (PK in rat; Rat): 24.3 ng·h/mL
Cmax (PK in rat; Rat): 32.3 ng/mL
half-life (PK in rat; rat, po, 10 mg/kg): 32.5 min
half-life [5]: 24 min
EC50 (HT-29): 64 nM
half-life [6]: 37 min
AUC(0-inf) (PK in mouse; IV 2 mg/kg): 522 ng·h/mL
clearance (PK in mouse; IV 2 mg/kg): 63.7 mL/min/kg
half-life (PK in mouse; IV 2 mg/kg): 35.7 min
Vd (PK in mouse; IV 2 mg/kg, read-out: Vdss): 3.28 L/kg
AUC(0-inf) (PK in mouse; PO 10 mg/kg): 1740 ng·h/mL
Cmax (PK in mouse; PO 10 mg/kg): 2850 ng/mL
bioavailability (PK in mouse; PO 10 mg/kg): 66.6%
half-life (PK in mouse; PO 10 mg/kg): 30.8 min
AUC(0-inf) (PK in dog; IV 5 mg/kg): 3210 ng·h/mL
clearance (PK in dog; IV 5 mg/kg): 25.9 mL/min/kg
half-life (PK in dog; IV 5 mg/kg): 120 min
Vd (PK in dog; IV 5 mg/kg, read-out: Vdss): 1.8 L/kg
AUC(0-inf) (PK in dog; PO 10 mg/kg): 148 ng·h/mL
Cmax (PK in dog; PO 10 mg/kg): 195 ng/mL
bioavailability (PK in dog; PO 10 mg/kg): 2.5%
half-life (PK in dog; PO 10 mg/kg): 276 min
SMILES: CCC(C)(C)C(=O)N(O)Cc1ccc(F)cc1 [SIR1-181]

PK [1]: +
H [2]: +
L [3]: +
SMILES: CCC(C)(C)C(=O)N(Cc1ccccc1)OC(=O)[C@@H](NC(=O)OC(C)(C)C)C(C)C [Compound 79, tert-butyl (S)-(1-((N-benzyl-2,2-dimethylbutanamido)oxy)-3-methyl-1-oxobutan-2-yl)carbamate]
EC50 (necrosis; [9]): 1430 nM

PK [1]: +
H [2]: +
L [3]: +
SMILES: CCC(C)(C)C(=O)N(Cc1ccccc1)OC(=O)OCCOCCOCCOC(=O)ON(Cc1ccccc1)C(=O)C(C)(C)CC [Compound 55, N,N′-(2,5,8,11-tetraoxadodecanedioylbis(oxy))bis(N-benzyl-2,2-dimethylbutanamide)]
EC50 (necrosis; [9]): 99.3 nM
